Target: Bromodomain-containing protein 4 (Homo sapiens, UniProt O60885)
Test: Alphascreen Binding Assay: Binding of compounds of formula (I) with bromodomain 2, 3 4 was assessed using Alphascreen binding assay. The inhibition of the interaction between bromodomain and its acetylated target protein (Filippakopoulos P et al. 2012) was measured quantitatively using recombinant BRD proteins, an acetylated Histone 4 peptide and AlphaScreen technology. In absence of inhibition the BRD protein bound to AlphaScreen nickel chelate acceptor beads can interact with the acetylated Histone 4 peptide which is immobilized by the AlphaScreen Streptavidin coated beads. This interaction brings donor and acceptor beads in proximity. The close proximity allows the singlet oxygen produced by laser excitation of the donor beads to reach the acceptor beads and generate a luminescence signal. BRD inhibitors result in a decrease in the proximity signal through an inhibition of the BRD-acetylated peptide interaction.Recombinant human bromodomains containing the N-terminal bromodomain (BRD2-BD1 (71-194), BRD3-BD1 (24-144) and BRD4-BD1 (44-164)) or dual bromodomains (BRD4-BD12 (1-477), BRD4-BD12 (1-472)) were prepared and purified as described in protein expression and purification session.

IC50: < 1 µM
Compound: Cc1noc(C)c1-c1cnc2c(c1)c(CC1CCN(S(=O)(=O)c3ccccc3)CC1)cn2C

From ChEMBL document CHEMBL5727461, “Heterocyclic compounds and uses thereof” (2019)
